Assay results from the NIST ThermoML archive (doi:10.1016/j.jct.2016.03.035).
Values joined by “and” are separate entries in the source; they are usually repeats but may differ in a detail not shown here. Identical values can stand only once.

Experiment: xn = mol fraction of the nth substance listed
Details: Gas, Buoyancy - hydrostatic balance with magnetic suspension - two sinkers

C [methane] + CCC
Details | mass density
293.15 K, 355.08 kPa, x1 = 0.2658 | 5.5657 kg/m3 and 5.5657 kg/m3
293.15 K, 393.88 kPa, x1 = 0.5069 | 4.9713 kg/m3 and 4.9715 kg/m3
293.15 K, 469.3 kPa, x1 = 0.2658 | 7.4651 kg/m3
293.15 K, 568.76 kPa, x1 = 0.2658 | 9.1679 kg/m3
293.15 K, 613.83 kPa, x1 = 0.5069 | 7.885 kg/m3 and 7.8849 kg/m3
293.15 K, 655.65 kPa, x1 = 0.2658 | 10.6965 kg/m3 and 10.6961 kg/m3
293.15 K, 803.71 kPa, x1 = 0.5069 | 10.4888 kg/m3
293.15 K, 803.74 kPa, x1 = 0.5069 | 10.4889 kg/m3
293.15 K, 803.76 kPa, x1 = 0.5069 | 10.4892 kg/m3
293.15 K, 857.4 kPa, x1 = 0.2658 | 14.4071 kg/m3 and 14.4072 kg/m3
293.15 K, 955.25 kPa, x1 = 0.2658 | 16.2978 kg/m3 and 16.2977 kg/m3
293.15 K, 1006.2 kPa, x1 = 0.5069 | 13.3633 kg/m3
293.15 K, 1105.7 kPa, x1 = 0.2658 | 19.3404 kg/m3
293.15 K, 1209.4 kPa, x1 = 0.5069 | 16.361 kg/m3
293.15 K, 1209.7 kPa, x1 = 0.5069 | 16.3642 kg/m3
293.15 K, 1399.6 kPa, x1 = 0.5069 | 19.2776 kg/m3
293.15 K, 1605.7 kPa, x1 = 0.5069 | 22.5751 kg/m3
293.15 K, 1605.8 kPa, x1 = 0.5069 | 22.5767 kg/m3 and 22.5758 kg/m3
293.15 K, 1807.2 kPa, x1 = 0.5069 | 25.9502 kg/m3
294.01 K, 1223.6 kPa, x1 = 0.2658 | 21.7481 kg/m3
294.04 K, 1223.7 kPa, x1 = 0.2658 | 21.7478 kg/m3
294.06 K, 1223.9 kPa, x1 = 0.2658 | 21.7477 kg/m3
294.09 K, 1224 kPa, x1 = 0.2658 | 21.7474 kg/m3
294.12 K, 1224.2 kPa, x1 = 0.2658 | 21.747 kg/m3
294.15 K, 1224.3 kPa, x1 = 0.2658 | 21.7472 kg/m3
294.18 K, 1224.5 kPa, x1 = 0.2658 | 21.7471 kg/m3
294.21 K, 1224.7 kPa, x1 = 0.2658 | 21.7472 kg/m3
294.25 K, 1224.9 kPa, x1 = 0.2658 | 21.7472 kg/m3
294.28 K, 1225.2 kPa, x1 = 0.2658 | 21.747 kg/m3
294.32 K, 1225.4 kPa, x1 = 0.2658 | 21.747 kg/m3
294.37 K, 1225.6 kPa, x1 = 0.2658 | 21.747 kg/m3
294.41 K, 1225.9 kPa, x1 = 0.2658 | 21.7466 kg/m3
294.46 K, 1226.2 kPa, x1 = 0.2658 | 21.7464 kg/m3
294.5 K, 1226.4 kPa, x1 = 0.2658 | 21.7465 kg/m3
294.56 K, 1226.7 kPa, x1 = 0.2658 | 21.7464 kg/m3
294.61 K, 1227 kPa, x1 = 0.2658 | 21.746 kg/m3
294.67 K, 1227.4 kPa, x1 = 0.2658 | 21.7447 kg/m3
294.74 K, 1227.7 kPa, x1 = 0.2658 | 21.744 kg/m3
294.81 K, 1228.1 kPa, x1 = 0.2658 | 21.7437 kg/m3
294.88 K, 1228.5 kPa, x1 = 0.2658 | 21.7435 kg/m3
294.95 K, 1228.9 kPa, x1 = 0.2658 | 21.743 kg/m3
295.11 K, 1229.9 kPa, x1 = 0.2658 | 21.7426 kg/m3
295.2 K, 1230.4 kPa, x1 = 0.2658 | 21.7417 kg/m3
295.29 K, 1230.9 kPa, x1 = 0.2658 | 21.741 kg/m3
295.39 K, 1231.4 kPa, x1 = 0.2658 | 21.7403 kg/m3
295.5 K, 1232 kPa, x1 = 0.2658 | 21.7395 kg/m3
295.6 K, 1232.6 kPa, x1 = 0.2658 | 21.7391 kg/m3
295.72 K, 1233.3 kPa, x1 = 0.2658 | 21.738 kg/m3
295.84 K, 1234 kPa, x1 = 0.2658 | 21.7373 kg/m3
295.97 K, 1234.7 kPa, x1 = 0.2658 | 21.7364 kg/m3
296.1 K, 1235.4 kPa, x1 = 0.2658 | 21.7356 kg/m3
296.24 K, 1236.2 kPa, x1 = 0.2658 | 21.7346 kg/m3
296.39 K, 1237 kPa, x1 = 0.2658 | 21.7335 kg/m3
296.55 K, 1237.9 kPa, x1 = 0.2658 | 21.7324 kg/m3
296.71 K, 1238.8 kPa, x1 = 0.2658 | 21.731 kg/m3
296.88 K, 1239.8 kPa, x1 = 0.2658 | 21.7302 kg/m3
297.07 K, 1240.8 kPa, x1 = 0.2658 | 21.7284 kg/m3
297.26 K, 1241.9 kPa, x1 = 0.2658 | 21.7273 kg/m3
297.45 K, 1243 kPa, x1 = 0.2658 | 21.7257 kg/m3
297.66 K, 1244.1 kPa, x1 = 0.2658 | 21.7254 kg/m3
297.86 K, 1245.3 kPa, x1 = 0.2658 | 21.7253 kg/m3
298.04 K, 1246.4 kPa, x1 = 0.2658 | 21.7265 kg/m3
298.15 K, 1247.3 kPa, x1 = 0.2658 | 21.7319 kg/m3
